Values of other authors as cited in patent US20250228825A1, “COMPOSITIONS OF RAPAMYCIN AND THEIR USE IN THE TREATMENT OF M[…] MALFORMATION” (priority 2021, published 2025).

Test system: LM lesions
Details: patients with LM

## CO[C@H]1C[C@@H]2CC[C@@H](C)[C@@](O)(O2)C(=O)C(=O)N2CCCC[C@H]2C(=O)O[C@H]([C@H](C)C[C@@H]2CC[C@@H](O)[C@H](OC)C2)CC(=O)[C@H](C)/C=C(\C)[C@@H](O)[C@@H](OC)C(=O)[C@H](C)C[C@H](C)/C=C/C=C/C=C/1C [sirolimus, rapamycin]
Reported in another review
  effectiveness: 84.5%
Reported in one review
  pooled clinical effectiveness (partial or complete response): 94.9%
